# From PubChem BioAssay AID222 (DTP/NCI, 2004)
# “And” between values parts separate entries of the source, which are not always exact repeats. Equal values may be shown once. Inconclusive results and toxic doses are left out.
# Test system: C57BL/6 mice, intracerebral ependymoblastoma, median survival T/C
# Assay: NCI In Vivo Anticancer Drug Screen. Data for tumor model Ependymoblastoma (intracerebral) in C57BL/6 mice
# Conditions: endpoint: median survival time, higher = longer survival
# Method: The antitumor activity of compounds was measured in mice bearing transplantable tumors. Survival or tumor size were measured and the results are expressed as the measurement made in the treated group (T) divided by the measurement made in the vehicle treated control group (C). The tumor model used in this assay is Ependymoblastoma (intracerebral) in C57BL/6 mice
smiles,measurement,setting,value
CN(C)CCCNc1c2ccccc2nc2cccc([N+](=O)[O-])c12,T/C,"dose: 0.01 mg/kg/injection, schedule: Q## X006 (ip), vehicle: saline",99 % of control
same,T/C,"dose: 0.03 mg/kg/injection, schedule: Q01DX001 (ip), vehicle: saline",101 % of control
same,T/C,"dose: 0.03 mg/kg/injection, schedule: Q## X006 (ip), vehicle: saline",94 % of control
same,T/C,"dose: 0.06 mg/kg/injection, schedule: Q01DX001 (ip), vehicle: saline",92 % of control
same,T/C,"dose: 0.06 mg/kg/injection, schedule: Q01DX005 (ip), vehicle: saline",99 % of control and 100 % of control and 102 % of control
same,T/C,"dose: 0.06 mg/kg/injection, schedule: Q#A X002 (ip), vehicle: saline",101 % of control and 117 % of control
same,T/C,"dose: 0.12 mg/kg/injection, schedule: Q01DX001 (ip), vehicle: saline",92 % of control
same,T/C,"dose: 0.12 mg/kg/injection, schedule: Q01DX005 (ip), vehicle: saline",98 % of control
same,T/C,"dose: 0.12 mg/kg/injection, schedule: Q#A X002 (ip), vehicle: saline",106 % of control and 111 % of control
same,T/C,"dose: 0.13 mg/kg/injection, schedule: Q01DX005 (ip), vehicle: saline",94 % of control
same,T/C,"dose: 0.25 mg/kg/injection, schedule: Q01DX001 (ip), vehicle: saline",91 % of control
same,T/C,"dose: 0.25 mg/kg/injection, schedule: Q#A X002 (ip), vehicle: saline",88 % of control and 101 % of control
same,T/C,"dose: 0.5 mg/kg/injection, schedule: Q01DX001 (oral), vehicle: saline",95 % of control
same,T/C,"dose: 0.5 mg/kg/injection, schedule: Q#A X002 (ip), vehicle: saline",94 % of control and 100 % of control
same,T/C,"dose: 1.0 mg/kg/injection, schedule: Q01DX001 (oral), vehicle: suspension in saline",100 % of control
same,T/C,"dose: 1.0 mg/kg/injection, schedule: Q#A X002 (ip), vehicle: saline",87 % of control and 91 % of control
same,T/C,"dose: 2.0 mg/kg/injection, schedule: Q01DX001 (ip), vehicle: saline",89 % of control
same,T/C,"dose: 2.0 mg/kg/injection, schedule: Q01DX001 (oral), vehicle: saline",104 % of control
same,T/C,"dose: 2.0 mg/kg/injection, schedule: Q01DX001 (oral), vehicle: suspension in saline",100 % of control
same,T/C,"dose: 2.0 mg/kg/injection, schedule: Q#A X002 (ip), vehicle: saline",87 % of control
same,T/C,"dose: 4.0 mg/kg/injection, schedule: Q01DX001 (ip), vehicle: saline",87 % of control
same,T/C,"dose: 4.0 mg/kg/injection, schedule: Q01DX001 (oral), vehicle: suspension in saline",91 % of control
same,T/C,"dose: 8.0 mg/kg/injection, schedule: Q01DX001 (oral), vehicle: saline",96 % of control
same,T/C,"dose: 8.0 mg/kg/injection, schedule: Q01DX001 (oral), vehicle: suspension in saline",96 % of control
same,T/C,"dose: 16.0 mg/kg/injection, schedule: Q01DX001 (oral), vehicle: suspension in saline",91 % of control
same,T/C,"dose: 3.9 micrograms/kg/injection, schedule: Q## X006 (ip), vehicle: saline",97 % of control
same,T/C,"dose: 7.8 micrograms/kg/injection, schedule: Q01DX005 (ip), vehicle: saline",103 % of control
same,T/C,"dose: 7.8 micrograms/kg/injection, schedule: Q## X006 (ip), vehicle: saline",97 % of control
same,T/C,"dose: 15.6 micrograms/kg/injection, schedule: Q01DX005 (ip), vehicle: saline",110 % of control
same,T/C,"dose: 15.6 micrograms/kg/injection, schedule: Q## X006 (ip), vehicle: saline",92 % of control
same,T/C,"dose: 16.0 micrograms/kg/injection, schedule: Q01DX005 (ip), vehicle: saline",102 % of control and 113 % of control
same,T/C,"dose: 31.2 micrograms/kg/injection, schedule: Q## X006 (ip), vehicle: saline",95 % of control
same,T/C,"dose: 32.0 micrograms/kg/injection, schedule: Q01DX005 (ip), vehicle: saline",104 % of control and 111 % of control
same,T/C,"dose: 62.5 micrograms/kg/injection, schedule: Q01DX005 (ip), vehicle: saline",107 % of control and 109 % of control
same,T/C,"dose: 62.5 micrograms/kg/injection, schedule: Q## X006 (ip), vehicle: saline",97 % of control
same,T/C,"dose: 63.0 micrograms/kg/injection, schedule: Q01DX005 (ip), vehicle: saline",103 % of control and 105 % of control
NC(=O)c1ncn(C2OC(CO)C(O)C2O)n1 (configuration not stated),T/C,"dose: 20.0 mg/kg/injection, schedule: Q01DX005 (ip), vehicle: saline",108 % of control
same,T/C,"dose: 40.0 mg/kg/injection, schedule: Q01DX005 (ip), vehicle: saline",105 % of control
same,T/C,"dose: 80.0 mg/kg/injection, schedule: Q01DX005 (ip), vehicle: saline",108 % of control
CC[C@]1(O)C[C@H]2CN(CCc3c([nH]c4ccccc34)[C@@](C(=O)OC)(c3cc4c(cc3OC)N(C=O)[C@H]3[C@@](O)(C(=O)OC)[C@H](OC(C)=O)[C@]5(CC)C=CCN6CC[C@]43[C@@H]65)C2)C1,T/C,"dose: 0.05 mg/kg/injection, schedule: Q01DX005 (ip), vehicle: saline",108 % of control
same,T/C,"dose: 0.1 mg/kg/injection, schedule: Q01DX005 (ip), vehicle: saline",103 % of control
same,T/C,"dose: 0.2 mg/kg/injection, schedule: Q01DX005 (ip), vehicle: saline",105 % of control
same,T/C,"dose: 0.4 mg/kg/injection, schedule: Q01DX005 (ip), vehicle: saline",124 % of control
CC1CCC(NC(=O)N(CCCl)N=O)CC1 (configuration not stated),T/C,"dose: 8.0 mg/kg/injection, schedule: Q01DX001 (ip), vehicle: saline with Tween-80",99 % of control
same,T/C,"dose: 8.0 mg/kg/injection, schedule: Q01DX005 (oral), vehicle: Klucel (hydroxypropylcellulose) (HPC)",156 % of control
same,T/C,"dose: 16.0 mg/kg/injection, schedule: Q01DX001 (ip), vehicle: saline with Tween-80",114 % of control
same,T/C,"dose: 16.0 mg/kg/injection, schedule: Q01DX005 (oral), vehicle: Klucel (hydroxypropylcellulose) (HPC)",151 % of control
same,T/C,"dose: 32.0 mg/kg/injection, schedule: Q01DX001 (ip), vehicle: saline with Tween-80",109 % of control
same,T/C,"dose: 32.0 mg/kg/injection, schedule: Q01DX001 (oral), vehicle: Klucel (hydroxypropylcellulose) (HPC)",97 % of control
same,T/C,"dose: 64.0 mg/kg/injection, schedule: Q01DX001 (ip), vehicle: saline with Tween-80",95 % of control and 109 % of control
same,T/C,"dose: 64.0 mg/kg/injection, schedule: Q01DX001 (oral), vehicle: Klucel (hydroxypropylcellulose) (HPC)",102 % of control
same,T/C,"dose: 128.0 mg/kg/injection, schedule: Q01DX001 (ip), vehicle: saline with Tween-80",98 % of control and 102 % of control
same,T/C,"dose: 128.0 mg/kg/injection, schedule: Q01DX001 (oral), vehicle: Klucel (hydroxypropylcellulose) (HPC)",102 % of control
same,T/C,"dose: 256.0 mg/kg/injection, schedule: Q01DX001 (ip), vehicle: saline with Tween-80",97 % of control
same,T/C,"dose: 256.0 mg/kg/injection, schedule: Q01DX001 (oral), vehicle: Klucel (hydroxypropylcellulose) (HPC)",95 % of control
same,T/C,"dose: 512.0 mg/kg/injection, schedule: Q01DX001 (ip), vehicle: saline with Tween-80",92 % of control
same,T/C,"dose: 512.0 mg/kg/injection, schedule: Q01DX001 (oral), vehicle: Klucel (hydroxypropylcellulose) (HPC)",90 % of control
COc1cccc2c1C(=O)c1c(O)c3c(c(O)c1C2=O)C[C@@](O)(/C(C)=N/NC(=O)c1ccccc1)C[C@@H]3OC1CC(N)C(O)C(C)O1 (some centres not stated),T/C,"dose: 1.0 mg/kg/injection, schedule: Q01DX009 (ip), vehicle: saline",108 % of control
same,T/C,"dose: 2.0 mg/kg/injection, schedule: Q01DX005 (ip), vehicle: saline with Tween-80",100 % of control
same,T/C,"dose: 2.0 mg/kg/injection, schedule: Q01DX009 (ip), vehicle: saline",99 % of control
same,T/C,"dose: 4.0 mg/kg/injection, schedule: Q01DX005 (ip), vehicle: saline with Tween-80",103 % of control
same,T/C,"dose: 4.0 mg/kg/injection, schedule: Q01DX009 (ip), vehicle: saline",113 % of control
